In paper PMC4464085, “Exploring monovalent and multivalent peptides for the inhibition of FBP21-tWW” (Beilstein Journal of Organic Chemistry, 2015):
Each block holds one molecule with its values, some of them ahead of it. Ends that are not written are not given here.

Legend:
FBP21-WW2 = target: T1, FBP21-WW2 (Homo sapiens, UniProt O75554); experiment: Isothermal titration calorimetry (ITC) with FBP21-WW2; type: binding; details: PBS pH 7.4, 25 °C, protein in cell 250 µM, peptide in syringe 5 mM, GST-tagged FBP21-WW2
T1 construct: with regard to FBP21’s WW domains by ITC; GST (N); made in house; host or cells: E. coli BL21 DE3 (pGEX4T1)
T1 sequence (O75554 163-196 limits assumed): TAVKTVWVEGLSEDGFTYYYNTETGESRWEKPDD
Protocol: (§1) Isothermal titration calorimetry
(§2) The His6-FBP21-tWW, FBP21-WW1 and FBP21-WW2 were dialyzed against PBS, pH 7.4.
(§3) Peptides were dissolved in PBS and the pH was adjusted to 7.4. hPG-peptide conjugate 2 was dialyzed against Millipore water and the buffer components were adjusted to PBS pH 7.4. The concentration was analyzed for all components by measuring absorbance at 280 nm using a Nanodrop2000 (Thermo Scientific). Extinction coefficients were Ɛ = 5500 M−1cm−1 for WPPPPRVPR and Ɛ = 32430 M−1cm−1 for FBP21-tWW. Accounting for the number of peptides on the scaffold, we calculated an extinction coefficient of Ɛ = 38500 M−1cm−1 for the hPG-peptide conjugate 2. ITC experiments were carried out on a Microcal ITC200 (GE Healthcare).
(§4) The parameters were set to: temperature 25 °C, spacing: 120 s (for WW1 and WW2 measurements) or 180 s (for tWW measurements), stirring speed: 1000 rpm, feedback gain: high, Filter: 5 s, DP: 7 µcal/s. In ITC measurements with FBP21 WW1 and WW2, the protein in the cell was concentrated to 250 µM, the peptide in the syringe to 5 mM, injected was 1 × 1 µL, then 15 × 2.5 µL. In ITC measurements with FBP21-tWW and peptide the protein concentration in the cell was 200 µM and the peptide concentration in the syringe 4 mM. In ITC measurements with FBP21-tWW and the hPG-peptide conjugate 2, the concentration of 2 in the cell was 90 µM and FBP21-tWW in the syringe 1.4 mM. Injected was 1 × 1 µL, then 19 × 2 µL. The data was analyzed with Origin and the Microcal ITC 200 AddOn. To obtain the stoichiometry (N) and the […]
particles and grown overnight at 30 °C, 250 rpm. The bacteria were pelleted; Phages were precipitated from the supernatant using 20% PEG, 2.5 M NaCl. The precipitated phages were pelleted and washed before resuspension in PBS/30% glycerol.
Protein expression and purification
FBP21-WW1 and FBP21-WW2 were expressed as a GST-tagged variant from pgex4T1 in E. coli BL21 DE3, FBP21-tWW was expressed from a pET28a-His6-FBP21-tWW plasmid in E. coli BL21 DE3 as described previously. Proteins were purified by the corresponding affinity matrices and applied to a HiLoad S75 Superdex 16/60 column in 1 × PBS, pH 7.4.
Proteins were concentrated by Centrifugal Filter Units (regenerated cellulose, 3000 MWCO, […]
SPOT analyses were performed as described. Membranes were blocked with 5% BSA in PBS, washed and incubated with GST, GST-WW1 or GST-WW2 at a concentration of 7.5 µg/mL (GST) or 10 µg/mL (GST-WW1, GST-WW2) respectively overnight at 4 °C. After washing, the spot arrays were incubated with a primary anti-GST antibody (Santa Cruz, GST-Z5, sc-459, 1:1000) for one hour at room temperature in blocking buffer, washed again and incubated for one hour with a secondary anti-rabbit antibody (goat anti-rabbit, Santa Cruz, sc-2004, 1:10000) at room temperature in blocking buffer. The peptide spot arrays were developed with HRP juice purchased from pjk GmbH on an Intas Advanced Fluorescence and ECL imager.
Synthesis of hPG-peptide conjugate 2
The peptide carboxylic acid, i.e., Ac-WPPPPRVPRGSG-COOH (0.0067 mmol, 9 mg), was dissolved in 2 mL dry DMF and cooled down to 0 °C using an ice bath under argon atmosphere.
To the cooled solution, N-hydroxysuccinimide (0.013 mmol, 1.54 mg) and DCC (0.013 mmol, 2.76 mg) were added. The ice bath was removed and the reaction mixture was allowed to stir at room temperature overnight. […]

FBP21-WW1 = target: T2, FBP21-WW1 (Homo sapiens, UniProt O75554); experiment: Isothermal titration calorimetry (ITC) with FBP21-WW1; type: binding; details: PBS pH 7.4, 25 °C, protein in cell 250 µM, peptide in syringe 5 mM, GST-tagged FBP21-WW1
T2 construct: with regard to FBP21’s WW domains by ITC; GST (N); made in house; host or cells: E. coli BL21 DE3 (pGEX4T1)
T2 sequence (O75554 122-155 limits assumed): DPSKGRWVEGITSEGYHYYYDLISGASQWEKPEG
Protocol: In order to determine an optimal peptide sequence for a FBP21-tWW ligand, we conducted a phage display experiment for each of the two WW domains. Phages used in these experiments carried a randomized X9-peptide fused to phage coat protein VIII [16]. Enrichment factors were calculated after each selection cycle, and reached a plateau after four panning rounds. Phagemids were isolated and sequenced after the third and fourth panning rounds. The sequences for WW1 and WW2 were overlapping to a large extent, showing their similarity in binding preference. This is expected from evolutionary and binding studies carried out earlier. In agreement with previous findings for this group of WW domains a polyproline stretch and an arginine residue are present in most sequenced clones. […] To define an optimized single monovalent binder, we analyzed the affinities for a selected set of ligands from this panel of sequences with regard to FBP21’s WW domains by ITC under the same conditions as were used for the phage display. […] To further analyze which residues are essential for the interaction, we performed substitution analyses using peptide SPOT arrays (Figure 1D, Supporting Information File 1 Figure S1). The experiment gives some insight into binding specificities. The central role of proline P5 for binding of peptides is evident for both WW domains (Figure 1D, Supporting Information File 1 Figure S1). Proline fulfills two requirements. On the one hand it promotes formation of the PPII helix conformation, on the other hand, it is accommodated well into the hydrophobic groove provided by the individual WW domains. At position P4 proline can be replaced by leucine, a residue well compatible with the PPII helical conformation. Arginine is preferred at position 6 or 9, highlighting the importance of a positive charge in complex formation. […] Possibly, the hybrid resonance of the guanidinium group in the arginine is more important in the case of WW2 compared to WW1. […]
as §1, §2, §3
as §4, with “In ITC measurements with FBP21-tWW and the hPG-peptide conjugate 2, the concentration of 2 in the cell was 90 µM and FBP21-tWW in the syringe 1.4 mM. Injected was 1 × 1 µL, then 19 × 2 µL.” left out, “AddOn.” for “AddOn. To obtain the stoichiometry (N) and the”
FBP21-WW1 and FBP21-WW2 were expressed as a GST-tagged variant from pgex4T1 in E. coli BL21 DE3, FBP21-tWW was expressed from a pET28a-His6-FBP21-tWW plasmid in […]

FBP21-tWW = target: T3, FBP21-tWW (Homo sapiens, UniProt O75554); experiment: Isothermal titration calorimetry (ITC) with FBP21-tWW; type: binding; details: PBS pH 7.4, 25 °C
T3 construct: made in house; host or cells: E. coli BL21 DE3 (pET28a)
T3 sequence (O75554 122-196 limits assumed): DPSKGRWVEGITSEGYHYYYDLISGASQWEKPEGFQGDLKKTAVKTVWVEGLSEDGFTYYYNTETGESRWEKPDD
Protocol: ITC measurements were performed to analyze the dissociation constant KD of the interaction between FBP21-tWW and hPG-peptide conjugate 2 in PBS, pH 7.4 (Figure 2A). To compare the KD values we also analyzed the binding between FBP21-tWW and the monovalent peptide ligand Ac-WPPPPRVPRGSG-COOH (Figure 2B). […] However, when considering that ≈7 peptides are bound per nanoparticle, the actual multivalency effect is small.
Gel permeation chromatography (GPC)
Molecular weight distribution of hPG-OH core was determined by means of GPC coupled to a refractive index detector (RI) obtaining the complete distribution (Mn, Mp, Mw, dispersity).
Measurements were carried out under highly diluted conditions (5 mg/mL) from a GPC consisting of an Agilent 1100 solvent delivery system with pump, manual injector, and an Agilent differential refractometer. Three 30 cm columns (PPS: Polymer Standards Service GmbH, Germany; Suprema 100 Å, 1000 Å, 3000 Å with 5 and 10 μm particle size) were used to separate aqueous polymer samples using water with 0.1 M NaNO3 as the mobile phase at a flow rate of 1 mL/min. The columns were operated at room temperature with the RI detector at 50 °C. […]
as §3, with “Extinction coefficients were Ɛ = 5500 M−1cm−1 for WPPPPRVPR and Ɛ = 32430 M−1cm−1 for FBP21-tWW.” left out, “ITC experiments were carried out on a Microcal ITC200 (GE Healthcare).” left out
The parameters were set to: temperature 25 °C, spacing: 120 s (for WW1 and WW2 measurements) or 180 s (for tWW measurements), stirring speed: 1000 rpm, feedback gain: high, Filter: 5 s, DP: 7 µcal/s. […] The data was analyzed with Origin and the Microcal ITC 200 AddOn. […]
FBP21-WW1 and FBP21-WW2 were expressed as a GST-tagged variant from pgex4T1 in E. coli BL21 DE3, FBP21-tWW was expressed from a pET28a-His6-FBP21-tWW plasmid in E. coli BL21 DE3 as described previously. […]

Ac-WPPPPRVPRGSG-COOH = target: T4, Ac-WPPPPRVPRGSG-COOH; experiment: ITC
T4 chain: Ac-WPPPPRVPRGSG-OH

hPG-peptide conjugate 2 = target: T5, hPG-peptide conjugate 2 (also: multivalent conjugation to hyperbranched polyglycerol amine (about 7 peptides per polymer), site not given here); experiment: ITC
T5 chain: Ac-WPPPPRVPRGSG

WPPPPRVPR peptide = target: T6, WPPPPRVPR peptide; experiment: ITC
T6 chain: WPPPPRVPR

Kd (FBP21-WW2): 87 ± 3.4 µM | Kd (FBP21-WW1): 155 ± 18 µM
Molecule: Ac-WPPPPRVPR [WPPPPRVPR]

WW2 KD (FBP21-WW2): could not be confirmed as a binder | WW1 KD (FBP21-WW1): could not be confirmed as a binder
Molecule: RPPPPHFPQ

Kd (FBP21-WW2): 270 ± 24 µM | Kd (FBP21-WW1): 490 ± 54 µM
Molecule: YPRPTNPRP [YPRPTNPRP]

WW2 KD (FBP21-WW2): did not show any binding | WW1 KD (FBP21-WW1): did not show any binding
Molecule: RPPCGYPLP

entropy loss upon interaction (FBP21-tWW; FBP21-tWW): −19.5 cal/mol/deg | stoichiometric factor derived from the fit (N) (FBP21-tWW; FBP21-tWW): 1.29 ± 0.0257 | Kd (FBP21-tWW; His6-FBP21-tWW, peptide: protein in cell 200 µM, peptide in syringe 4 mM, conjugate 2: 90 µM in cell, FBP21-tWW 1.4 mM in syringe, read-out: KD of the interaction with FBP21-tWW): 150 ± 6 µM
Molecule: Ac-WPPPPRVPRGSG [Ac-WPPPPRVPRGSG-COOH]

Kd (FBP21-WW2): 68.5 ± 6.9 µM | Kd (FBP21-WW1): 452 ± 45 µM
Molecule: YPRPPGPPP [YPRPPGPPP]

Kd (Ac-WPPPPRVPRGSG-COOH): 150 µM | Kd (hPG-peptide conjugate 2): 17.6 µM
B1: FBP21-tWW WW1-WW2 (protein)
chain: DPSKGRWVEGITSEGYHYYYDLISGASQWEKPEGFQGDLKKTAVKTVWVEGLSEDGFTYYYNTETGESRWEKPDD

Kd (WPPPPRVPR peptide): 155 µM
B2: FBP21 WW1 WW1 (peptide)
chain: RKKDPSKGRWVEGITSEGYHYYYDLISGASQWEKPEGFQG

Kd (WPPPPRVPR peptide): 87 µM
B3: FBP21 WW2 WW2 (peptide)
chain: LKKTAVKTVWVEGLSEDGFTYYYNTETGESRWEKPDDFIP
